Test results as given in article PMC11423509, “Structural basis of Pseudomonas aeruginosa penicillin binding protein 3 inhibition by the siderophore-antibiotic cefiderocol” (Chemical Science, 2024).
Read-outs that look alike come from different tables or passages of the source.

What was measured:
P. aeruginosa PBP3 [1] = target: T1, P. aeruginosa PBP3 (Pseudomonas aeruginosa, UniProt G3XD46); test: biochemical; conditions: 300 nM PBP3, 1.5 mM S2d, 0.5 mM mBBr; 10 min pre-incubation at 30 °C; mean ± standard error of three independent experiments; read-out: pIC50 (S2d, n = 3) (converted)
T1 construct: A gene encoding ftsI (PBP3, residues 50–579) from P. aeruginosa PAO1; made in house; host or cells: E. coli BL21(DE3)
Excerpt: (§1) PBP3 transpeptidases are proposed to be key targets for the cephalosporins and most other β-lactam antibiotics.[13] […] In one method, the thioester substrate analogue S2d is hydrolysed by PBP3 (ESI Scheme S1 ^†) releasing D-alanine and a free thiol.[15,16] The latter reacts with monobromobimane (mBBr), a fluorescent dye, enabling measurement of the turnover rate and determination of pIC50 values.
A positive control without inhibitor and a negative control lacking both enzyme and inhibitor were prepared. […]
(§2) independent repeats are shown. Error bars represent standard deviations from three technical replicates measured simultaneously. Average pIC50 values and inhibitor structures are provided […]
(§3) (1 picture or pasted object on this page, not shown here)

P. aeruginosa PBP3 [2] = target: T1, P. aeruginosa PBP3; test: biochemical; assay type: binding; conditions: 311 nM PBP3, 30 nM Bocillin-FL; 10 min pre-incubation at 30 °C; mean ± standard error of three independent experiments; read-out: pIC50 (bocillin, n = 3) (converted)
Excerpt: as §1
A positive control without inhibitor and a negative control lacking both enzyme and inhibitor were prepared. In both cases the inhibitor/enzyme solution was replaced with an equal volume of buffer. Following incubation of the inhibitor with PBP3, Bocillin-FL (30 nM) was dispensed to initiate the reaction. Following a further incubation (10 min, 30 °C, 300 rpm) the fluorescence polarisation was measured using a BMG PHERAstar Microplate Reader (λEx/λEm = 480/520 nm) using black 384-well microplates (Greiner). The percentage inhibition of Bocillin-FL binding was calculated for each compound concentration by normalising with control wells. These measurements were used to calculate relative pIC50 values using the log([inhibitor]) against normalised response, fit, using GraphPad Prism version 10.2 (ESI Fig. S7 ^†).
Figure S7: Dose response curves for (A) cefiderocol, (B) ceftazidime, (C) cefepime and […]
assays were carried out with 311 nM PBP3 and 30 nM Bocillin-FL, with 10 minute pre-incubation with inhibitor compounds in 50 mM potassium phosphate, pH 7.4. […]
as §2, §3

P. aeruginosa PBP3 [3] = target: T1, P. aeruginosa PBP3; test: Meropenem competition binding experiment, PBP3-observed mass spectrometry; conditions: 1 : 1 mixture of cephalosporin and meropenem (1 mM of each), 100 μM PBP3, 10 minutes co-incubation, quenched with formic acid
Description: To further probe the relative rates of reaction of the four β-lactams with PBP3, a competitive binding experiment employing PBP3-observed mass spectrometry (MS) was developed. […] Following 10 minutes co-incubation with PBP3, the reactions were quenched with formic acid and analysed by protein-observed MS (under denaturing conditions) (Fig. 1).
The spectra shown are representative of three technical repeats.
Samples were then diluted in LC-MS-grade water (15 μM final concentration) and analysed using a Waters XeVo G2-S mass spectrometer coupled to a Waters Acquity-UPLC. 5 μL samples were injected onto a ThermoFisher Scientific ProSwift RP-4H (1 mm × 50 mm) column pre-equilibrated in 95%v/v water, 5%v/v MeCN. The column was eluted with a linear gradient from 5 to 95v/v% MeCN in water over ten minutes. All solvents contained 0.1%v/v formic acid. Data were analysed using MassLynx Version 4.1. The mass spectra obtained were deconvoluted using the MaxEnt1 algorithm.

PBP3 = tested on: PBP3; set-up: method as in earlier work; conditions: Bocillin-FL assay under different conditions; ref 20 (Shapiro et al.); cited from earlier work

T1 sequence (G3XD46 50-579): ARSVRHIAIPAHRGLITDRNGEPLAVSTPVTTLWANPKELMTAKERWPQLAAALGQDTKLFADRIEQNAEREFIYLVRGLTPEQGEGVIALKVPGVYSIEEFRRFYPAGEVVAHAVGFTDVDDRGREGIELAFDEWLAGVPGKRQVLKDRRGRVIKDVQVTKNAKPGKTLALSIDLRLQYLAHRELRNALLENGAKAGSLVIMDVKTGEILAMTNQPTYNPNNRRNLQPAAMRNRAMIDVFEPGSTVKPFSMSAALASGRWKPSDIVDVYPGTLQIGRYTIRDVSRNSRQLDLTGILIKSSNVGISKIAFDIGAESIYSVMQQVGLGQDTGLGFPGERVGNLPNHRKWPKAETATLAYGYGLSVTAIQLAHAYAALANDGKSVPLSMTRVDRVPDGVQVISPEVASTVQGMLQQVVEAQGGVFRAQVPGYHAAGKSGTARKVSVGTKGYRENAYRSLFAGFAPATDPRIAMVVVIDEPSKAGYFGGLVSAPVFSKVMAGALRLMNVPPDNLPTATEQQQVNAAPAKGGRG

Row | Compound | IC50 (P. aeruginosa PBP3 [1]) | IC50 (P. aeruginosa PBP3 [2]) | PBP3 complex formed in competition with meropenem (protein-observed MS) (P. aeruginosa PBP3 [3]) | PBP3 inhibition relative to meropenem (PBP3)
1 | CO/N=C(\C(=O)N[C@@H]1C(=O)N2C(C(=O)[O-])=C(C[N+]3(C)CCCC3)CS[C@H]12)c1csc(N)n1 [Cefepime, cefepime] | 39.8 nM | 100 nM | ∼1 : 1 mixture of cefepime and meropenem modified PBP | 
2 | CC(C)(O/N=C(\C(=O)N[C@@H]1C(=O)N2C(C(=O)[O-])=C(C[N+]3(CCNC(=O)c4ccc(O)c(O)c4Cl)CCCC3)CS[C@H]12)c1csc(N)n1)C(=O)O [Cefiderocol, cefiderocol] | 50.1 nM | 100 nM | a small amount of cefiderocol modified PBP3 was observed | 
3 | CC(C)(O/N=C(\C(=O)N[C@@H]1C(=O)N2C(C(=O)[O-])=C(C[n+]3ccccc3)CS[C@H]12)c1csc(N)n1)C(=O)O [Ceftazidime, ceftazidime] | 79.4 nM | 251 nM | exclusively meropenem-modified PBP3 | more inhibition with ceftazidime than meropenem
